How the values were obtained:
Type in all cases: biochemical
Mannaway = assay: Residual enzymatic activity of mannanase in water-soluble film after film production; conditions: Mannanase (Mannaway, 0.03% wt) in film with Savinase protease; 0.5% wt 4-FPBA; vs. amount of enzyme added; average of three analyses; film without 4-FPBA: 1%
Method: (§1) We prepared two different enzyme containing water-soluble films, as outlined in Table 1 below. The films were produced under normal film production conditions. Later, the films were analyzed to estimate the enzymatic activity remaining after the production process, i.e., the percentage of residual enzymatic activity in the final film product, as compared to the amount of enzyme added in the production process.
The mannanase used was Mannaway (Novozymes A/S, Denmark), which was added to obtain a final concentration of 0.03% wt active enzyme protein in both of the films.
(§2) The protease inhibitor used was 4-formyl-phenyl-boronic acid (4-FPBA), which was added to obtain a final concentration of 0.5% wt in one of the water-soluble films.
(§3) Since the humidity of the samples was not controlled, some of the absolute values from the analysis are above 100%. However, all film samples were treated identically and analyzed at the same time, and therefore the relative improvement by using the protease inhibitor can be calculated. Table 1. The data are based on an average of three analyses of each film.

Stainzyme = assay: Residual enzymatic activity of amylase in water-soluble film after film production
Method: as §1
The amylase used was Stainzyme (Novozymes A/S, Denmark), which was added to obtain a final concentration of 0.1 % wt active enzyme protein in both of the films.
as §2, §3

Savinase = molecular target: T1, Savinase (Lederbergia lenta, UniProt P29600); assay: Residual enzymatic activity of protease in water-soluble film after film production
T1 construct: purchased Novozymes A/S, Denmark
T1 sequence (P29600 1-269): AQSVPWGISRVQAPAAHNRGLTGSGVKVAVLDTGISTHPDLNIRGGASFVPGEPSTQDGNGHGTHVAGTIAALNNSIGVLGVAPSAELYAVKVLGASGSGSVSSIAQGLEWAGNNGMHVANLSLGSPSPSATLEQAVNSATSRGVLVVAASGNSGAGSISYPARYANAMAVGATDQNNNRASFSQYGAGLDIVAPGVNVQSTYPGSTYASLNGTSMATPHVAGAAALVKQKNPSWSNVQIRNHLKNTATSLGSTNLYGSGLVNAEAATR
Method: as §1
The protease used for preparing the films was Savinase (Novozymes A/S, Denmark), which was added to obtain a final concentration of 1.1 % wt active enzyme protein in both of the water-soluble films.
as §2, §3

Structure (SMILES): O=Cc1ccc(B(O)O)cc1 [4-FPBA, 4-formyl-phenyl-boronic acid]
- Residual activity in film made with 4-FPBA (Mannaway): 63%
- Residual activity in film made with 4-FPBA (Stainzyme; Amylase (Stainzyme, 0.1 % wt) in film with Savinase protease, 0.5% wt 4-FPBA, vs. amount of enzyme added, average of three analyses, humidity not controlled, values above 100%, film without 4-FPBA: 106%): 114%
- Relative improvement by using inhibitor (Stainzyme; Amylase, film with 0.5% wt 4-FPBA vs. film without 4-FPBA): 8%
- Residual activity in film made with 4-FPBA (Savinase; Protease (Savinase, 1.1 % wt) in film also holding amylase and mannanase, 0.5% wt 4-FPBA, vs. amount of enzyme added, average of three analyses, film without 4-FPBA: 87%): 93%
- Relative improvement by using inhibitor (Savinase; Protease, film with 0.5% wt 4-FPBA vs. film without 4-FPBA): 7%

Reference: EP2799533A1, “Protease and inhibitor containing water-soluble films” (Novozymes A/S, priority 2013, dated 2014)
